Values of other authors as cited in patent US20230175068A1, “PROGNOSIS METHOD OF ACUTE MYELOID LEUKAEMIA” (CENTRE NATIONAL DE LA RECHERCHE SCIENTIFIQUE, priority 2020, published 2023).
Like-named read-outs stand apart in the source and are kept apart here.

System: AML cell lines

| SMILES | T-Statistic (Drug sensitivity AUC (Sanger GDSC2)) | T-Statistic (Drug sensitivity AUC (Sanger GDSC1)) |
| --- | --- | --- |
| O=C1NC(=O)c2c1c(-c1ccccc1Cl)cc1[nH]c3ccc(O)cc3c21 [Wee1 Inhibitor] | -4.966 | – |
| O=C(c1cc(Cc2n[nH]c(=O)c3ccccc23)ccc1F)N1CCN(C(=O)C2CC2)CC1 [Olaparib] | – | -3.795 |
